Results taken from publication PMC6084503, “Pyrrolo[3,2-c]pyridine derivatives with potential inhibitory effect against FMS kinase: in vitro biological studies” (Journal of Enzyme Inhibition and Medicinal Chemistry, 2018).
Where two headings read alike, the source gives them in different places.

Tests used:
[1] = biological target: T1, FMS kinase (Homo sapiens, UniProt P07333); test: Kinase HotSpot cell-free enzyme assay, FMS kinase; type: biochemical; conditions: single-dose concentration of 1 μM
T1 construct: purchased Reaction Biology Corp
T1 sequence (P07333 20-972): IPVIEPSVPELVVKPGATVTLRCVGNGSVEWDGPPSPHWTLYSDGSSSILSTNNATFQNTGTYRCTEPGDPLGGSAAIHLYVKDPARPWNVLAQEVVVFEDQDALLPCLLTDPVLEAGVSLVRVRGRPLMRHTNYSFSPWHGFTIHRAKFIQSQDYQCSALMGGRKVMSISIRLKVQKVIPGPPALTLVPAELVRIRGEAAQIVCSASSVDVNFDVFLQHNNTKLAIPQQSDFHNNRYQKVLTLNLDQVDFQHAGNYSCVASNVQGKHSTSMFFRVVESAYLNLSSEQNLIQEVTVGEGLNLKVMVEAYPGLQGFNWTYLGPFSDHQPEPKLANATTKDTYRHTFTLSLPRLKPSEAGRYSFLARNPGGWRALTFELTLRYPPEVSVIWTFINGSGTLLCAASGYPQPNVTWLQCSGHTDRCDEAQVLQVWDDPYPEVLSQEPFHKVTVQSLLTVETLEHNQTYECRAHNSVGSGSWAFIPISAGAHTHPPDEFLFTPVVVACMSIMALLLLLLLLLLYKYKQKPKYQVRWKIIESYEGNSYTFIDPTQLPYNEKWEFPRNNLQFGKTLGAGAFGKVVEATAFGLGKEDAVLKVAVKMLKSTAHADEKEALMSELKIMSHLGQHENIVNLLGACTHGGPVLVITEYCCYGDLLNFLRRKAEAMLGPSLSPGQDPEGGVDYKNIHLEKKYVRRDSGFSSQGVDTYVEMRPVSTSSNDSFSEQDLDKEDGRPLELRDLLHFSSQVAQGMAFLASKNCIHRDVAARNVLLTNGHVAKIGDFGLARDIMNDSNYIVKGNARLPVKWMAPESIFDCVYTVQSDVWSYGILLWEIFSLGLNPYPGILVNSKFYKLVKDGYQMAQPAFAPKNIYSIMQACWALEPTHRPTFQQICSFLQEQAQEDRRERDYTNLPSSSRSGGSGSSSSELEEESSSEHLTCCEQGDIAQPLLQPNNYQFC

[2] = system: panel of 40 kinases including FMS; test: Kinase HotSpot 40-kinase panel, summary over the other kinases; type: biochemical; conditions: 1 µM; kinases other than FMS, FLT3 (D835Y) and c-MET
Procedure: (§1) Reaction Biology Corp. Kinase HotSpot^SM service [http://www.reactionbiology.com] was utilised for screening of the target compounds as per the protocol reported in the literature.
Compound 1r was tested against a panel of 40 kinases including FMS. […] Its inhibition percentages against FLT3 (D835Y) and c-MET kinases were 42% and 40%, respectively. So its IC50 values against both of them will be in micromolar scale. […] The inhibition percentages exerted by compound 1r against the other 37 tested kinases were less than 28%.

[3] = system: HS 27 fibroblasts; test: Antiproliferative screening against HS 27 fibroblasts; type: cell-based; conditions: HS-27 Fibroblasts (normal cells), concentration producing 50% inhibition
Procedure: It was conducted following the previously reported protocol.
(§2) Due to over-expression of FMS kinase in certain types of tumours such as ovarian, prostate, and breast[5–7] cancers, we decided to test the antiproliferative activity of compound 1r against a panel of six ovarian, two prostate, and five breast cancer cell lines. It was also tested against HS 27 fibroblasts in order to investigate the selectivity indexes. The results were compared with those of KIST101029 as a reference standard.

[4] = system: panel of six ovarian, two prostate, and five breast cancer cell lines; test: NCI antiproliferative screening, whole panel; type: cell-based; conditions: read-out: IC50 values, range over the cancer cell line panel
Procedure: (§3) Compounds 1r and KIST101029 were tested at the National Cancer Institute (NCI, Bethesda, MD) following their standard protocol [https://dtp.cancer.gov/discovery_development/nci-60/methodology.htm].
as §2

[5] = system: bone marrow-derived macrophages (BMDM); test: BMDM assay, CSF-1-induced BMDM growth (Alamar Blue); type: cell-based, C57BL6 murine; conditions: 5 days, triplicate assay, mean ± SEM, 10-dose from 1 µM, read-out: IC50 against bone marrow-derived macrophages (BMDM)
Procedure: The macrophages were isolated from C57BL6 murine bone marrow using Miltenyi Biotec MACS beads (CD11b). The macrophages (30,000 cells/well) were cultured in RPMI 1640 medium containing 10% foetal bovine serum, 2-mercaptoethanol ([…]), and the test compound for 1 h at 37 °C in the presence of 5% CO2. CSF-1 (20 ng/mL) was then added and the system was incubated for 5 days. Each compound was tested in a 10-dose testing mode, threefold serial dilution starting with 1 µM concentration. The inhibitory effects of the tested compounds against CSF-1-induced BMDM growth were determined using Alamar Blue^TM (Serotec).
FMS over-expression contributes to inflammatory disorders as explained in the Introduction section. So compounds 1r and KIST101029 were tested for their ability to inhibit CSF-1-induced BMDM growth. […] So, the compound 1r can be a promising candidate for future development of anti-arthritic drugs.
Each compound was tested in a 10-dose testing mode, threefold serial dilution starting with 1 µM concentration.

[6] = system: IGROV1 ovarian cancer cell line; test: NCI antiproliferative screening, 5-dose; type: cell-based; conditions: for IC50: mean of duplicate experiments; for TGI: concentration producing 100% inhibition
Procedure: as §3, §2

[7] = system: OVCAR-5 ovarian cancer cell line; test: NCI antiproliferative screening, 5-dose; type: cell-based; conditions: for IC50: concentration producing 50% inhibition, mean of duplicate experiments; for TGI: concentration producing 100% inhibition
Procedure: as §3, §2

[8] = system: MCF7 breast cancer cell line; test: NCI antiproliferative screening, 5-dose; type: cell-based; conditions: for IC50: concentration producing 50% inhibition, mean of duplicate experiments; for TGI: concentration producing 100% inhibition
Procedure: as §3, §2

[9] = system: OVCAR-8 ovarian cancer cell line; test: NCI antiproliferative screening, 5-dose; type: cell-based; conditions: for IC50: concentration producing 50% inhibition, mean of duplicate experiments; for TGI: concentration producing 100% inhibition
Procedure: as §3, §2

[10] = system: HS 578T breast cancer cell line; test: NCI antiproliferative screening, 5-dose; type: cell-based; conditions: for IC50: concentration producing 50% inhibition, mean of duplicate experiments; for TGI: concentration producing 100% inhibition
Procedure: as §3, §2

[11] = system: PC-3 prostate cancer cell line; test: NCI antiproliferative screening, 5-dose; type: cell-based; conditions: for IC50: concentration producing 50% inhibition, mean of duplicate experiments; for TGI: concentration producing 100% inhibition
Procedure: as §3, §2

[12] = system: OVCAR-4 ovarian cancer cell line; test: NCI antiproliferative screening, 5-dose; type: cell-based; conditions: for IC50: concentration producing 50% inhibition, mean of duplicate experiments; for TGI: concentration producing 100% inhibition
Procedure: as §3, §2

[13] = system: T-47D breast cancer cell line; test: NCI antiproliferative screening, 5-dose; type: cell-based; conditions: for IC50: concentration producing 50% inhibition, mean of duplicate experiments; for TGI: concentration producing 100% inhibition
Procedure: as §3, §2

[14] = system: NCI/ADR-RES ovarian cancer cell line; test: NCI antiproliferative screening, 5-dose; type: cell-based; conditions: for IC50: concentration producing 50% inhibition, mean of duplicate experiments; for TGI: concentration producing 100% inhibition
Procedure: as §3, §2

[15] = system: DU-145 prostate cancer cell line; test: NCI antiproliferative screening, 5-dose; type: cell-based; conditions: for IC50: concentration producing 50% inhibition, mean of duplicate experiments; for TGI: concentration producing 100% inhibition
Procedure: as §3, §2

[16] = system: OVCAR-3 ovarian cancer cell line; test: NCI antiproliferative screening, 5-dose; type: cell-based; conditions: for IC50: concentration producing 50% inhibition, mean of duplicate experiments; for TGI: concentration producing 100% inhibition
Procedure: as §3, §2

[17] = system: MDA-MB-468 breast cancer cell line; test: NCI antiproliferative screening, 5-dose; type: cell-based; conditions: for IC50: concentration producing 50% inhibition, mean of duplicate experiments; for TGI: concentration producing 100% inhibition
Procedure: as §3, §2

[18] = system: MDA-MB-231/ATCC breast cancer cell line; test: NCI antiproliferative screening, 5-dose; type: cell-based; conditions: for IC50: concentration producing 50% inhibition, mean of duplicate experiments; for TGI: concentration producing 100% inhibition
Procedure: as §3, §2

[19] = biological target: T1, FMS kinase; test: Kinase HotSpot cell-free enzyme assay, FMS kinase; type: biochemical
Procedure: as §1
Compounds 1a–r were tested in a 10-dose testing mode starting with 81 µM, threefold serial dilutions, against FMS kinase in a cell-free enzyme assay. […] This can be due to occupancy of a hydrophobic pocket with that additional benzoyl moiety and/or formation of additional hydrogen bond by the carbonyl oxygen.

Q: What does the source list for `Nc1nccc2c1ccn2-c1cccc(NC(=O)c2ccc(N3CCOCC3)c(C(F)(F)F)c2)c1` [Compound 1r]?
A: % Inhibition [1]: 81%; Inhibition percentages against the other 37 tested kinases [2]: less than 28%; IC50 [3]: 5720 nM; IC50 [4]: 150 to 1780 nM; IC50 [5]: 84 ± 3 nM; IC50 ([6]; concentration producing 50% inhibition): 700 nM; TGI [6]: 43300 nM; IC50 [7]: 1380 nM; TGI [7]: >50000 nM; IC50 [8]: 150 nM; TGI [8]: 6860 nM; IC50 [9]: 1260 nM; TGI [9]: 9960 nM; IC50 [10]: 340 nM; TGI [10]: 2430 nM; IC50 [11]: 380 nM; TGI [11]: 10400 nM; IC50 [12]: 1080 nM; TGI [12]: 26000 nM; IC50 [13]: 1780 nM; TGI [13]: 27500 nM; IC50 [14]: 340 nM; TGI [14]: >50000 nM; IC50 [15]: 1300 nM; TGI [15]: 4670 nM; IC50 [16]: 240 nM; TGI [16]: 1470 nM; IC50 [17]: 300 nM; TGI [17]: 3140 nM; IC50 [18]: 840 nM; TGI [18]: 2320 nM; IC50 ([19]; 10-dose duplicate assay, mean ± SEM, starting with 81 µM, threefold serial dilution, read-out: IC50 against FMS kinase): 30 ± 20 nM; Potency against FMS kinase relative to KIST101029 ([19]; ratio of IC50 values, more potent than lead compound KIST101029): 3.2 times

Q: Which results are given for `O=C(Nc1cccc(-n2ccc3c(NC(=O)c4ccccc4)nccc32)c1)c1ccc(N2CCOCC2)c(C(F)(F)F)c1` [KIST101029, reference compound]?
A: inhibition at 1 µM [1]: 90%; IC50 ([3]; Homo sapiens, HS27): 300 nM; IC50 ([5]; Mus musculus, 120 h): 195 ± 6 nM; IC50 ([6]; Homo sapiens, IGROV-1, concentration producing 50% inhibition): 60 nM; TGI [6]: 56900 nM; IC50 ([7]; Homo sapiens): 200 nM; TGI [7]: >100000 nM; IC50 ([8]; Homo sapiens): 40 nM; TGI [8]: 54000 nM; IC50 ([9]; Homo sapiens): 60 nM; TGI [9]: >100000 nM; IC50 ([10]; Homo sapiens): 990 nM; TGI [10]: 97200 nM; IC50 [11]: 60 nM; TGI [11]: >100000 nM; IC50 ([12]; Homo sapiens): 240 nM; TGI [12]: 50000 nM; IC50 ([13]; Homo sapiens, T47D): 80 nM; TGI [13]: 7460 nM; IC50 ([14]; Homo sapiens): 40 nM; TGI [14]: 26400 nM; IC50 ([15]; Homo sapiens): 40 nM; TGI [15]: 100 nM; IC50 ([16]; Homo sapiens): 20 nM; TGI [16]: 50 nM; IC50 ([17]; Homo sapiens): 30 nM; TGI [17]: 100 nM; IC50 ([18]; Homo sapiens): 160 nM; TGI [18]: 3420 nM
